Results from paper PMC5078989, “Targeted inhibition of the COP9 signalosome for treatment of cancer” (Nature Communications, 2016).

Tested on: panel of cancer cell lines
Test: Cell viability (CellTiter-Glo) dose-response across cancer cell line panel;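 for EC50: after 72 h compound incubation with CellTiter-Glo ATP readout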
Type: cell-based, human
Conditions: for EC50: Homo sapiens
Description: Next, we explored the effect of CSN5 inhibition on the viability of cancer cells. To obtain a comprehensive picture, we generated dose–response curves with a CSN5 inhibitor across more than 500 cancer cell lines in a previously described standardized setting[47] (Supplementary Data 1).
A standardized CellTiter-Glo Assay (Promega #G7570) based on the quantification of ATP was applied according to the manufacturer's protocol to measure the amount of viable cells in culture. In brief, cells were seeded into 384-well plates at optimal density for each cell line. After 4 h, compounds were added at different concentrations in growth medium and incubated for another 72 h in a humidifying chamber at 37 °C and 5% CO2. […] EC50 values were calculated from the plot of percentage of inhibition versus inhibitor concentration using the nonlinear regression analysis software Origin 7.5SR6 (OriginLab Corp.).

- EC50 (59M): 2.65 µM
- EC50 (92.1): 3.88 µM
- EC50 (639-V): 0.723 µM
- EC50 697: 0.477 µM
- EC50 (769-P): 13.9 µM
- EC50 (786-0, 786-O): 1.05 µM
- EC50 (1321-N1, 1321N1): 3.68 µM
- EC50 (8505C): 0.829 µM
- EC50 (A4/Fuk): 0.12 µM
- EC50 (A101D): 0.372 µM
- EC50 (A 172, A172): 13.4 µM
- EC50 (A204, A-204): 0.206 µM
- EC50 (A498, A-498): 1.4 µM
- EC50 (A549, A549): 1.41 µM
- EC50 (A673, A-673): 0.431 µM
- EC50 (A704, A-704): 1.64 µM
- EC50 (A2058, A2058): 2.05 µM
- EC50 (A2780, A2780): 0.279 µM
- EC50 (A-375, A-375): 0.69 µM
- EC50 (ABC-1, ABC-1): 0.485 µM
- EC50 (ACC-MESO-1, ACC-MESO-1): 2.4 µM
- EC50 (AM-38, AM-38): 0.983 µM
- EC50 (AML-193): 3.21 µM
- EC50 (AN3-CA, AN3 CA): 2.23 µM
- EC50 (ASPC1, AsPC-1): 4.74 µM
- EC50 (AU565, AU565): 1.35 µM
- EC50 (BC-3C): 2.03 µM
- EC50 (BEN): 12.5 µM
- EC50 (BFTC-909, BFTC-909): 7.58 µM
- EC50 (BICR 6): 1.11 µM
- EC50 (BICR 16): 1.02 µM
- EC50 (BICR 31): 1.21 µM
- EC50 (BT-16, BT-16): 3.28 µM
- EC50 (BT-549, BT-549): 0.296 µM
- EC50 (BXPC-3, BxPC-3): 6.03 µM
- EC50 (C3A): > 30 µM
- EC50 (C32, C32): 0.83 µM
- EC50 (CAKI-1, Caki-1): 0.845 µM
- EC50 (CAKI-2, Caki-2): 3.04 µM
- EC50 (CAL-12T): 0.474 µM
- EC50 (CAL-27, CAL 27): 0.713 µM
- EC50 (CAL-29): 5.69 µM
- EC50 (CAL-54, CAL-54): 1.17 µM
- EC50 (CAL-85-1, CAL-85-1): 7.99 µM
- EC50 (CAL-120, CAL-120): 6.81 µM
- EC50 (CAL-148, CAL-148): 1.68 µM
- EC50 (CAMA-1, CAMA-1): 20.5 µM
- EC50 (CAPAN-1, Capan-1): 0.643 µM
- EC50 (CAS-1): 0.705 µM
- EC50 (CCRF-HSB-2, CCRF-HSB-2): 0.15 µM
- EC50 (CEM/C1, CEMC1): 0.343 µM
- EC50 (CFPAC-1, CFPAC-1): 3.54 µM
- EC50 (CL-14): > 30 µM
- EC50 (CL-34): 3.88 µM
- EC50 (CMK): 1.8 µM
- EC50 (CMK-86, CMK-86): 1.72 µM
- EC50 (COLO 201, COLO 201): 1.12 µM
- EC50 (COLO 205, COLO 205): 12.5 µM
- EC50 (COLO 320, COLO-320): 1.4 µM
- EC50 (COLO 699, COLO-699): 3.05 µM
- EC50 (COLO 704, COLO-704): 0.634 µM
- EC50 (COLO-678, COLO-678): 3.41 µM
- EC50 (COLO-679, COLO-679): 0.492 µM
- EC50 (COLO-741, COLO 741): 1.34 µM
- EC50 (COLO-829, COLO 829): 10.7 µM
- EC50 (COR-L23, COR-L23): 11.8 µM
- EC50 (COR-L105, COR-L105): 4.94 µM
- EC50 (COV362, COV362): 8.84 µM
- EC50 (COV644): 1.04 µM
- EC50 (CW-2, CW-2): 4.95 µM
- EC50 (Calu-1, Calu-1): 13 µM
- EC50 (Calu-6, Calu-6): 0.539 µM
- EC50 (ChaGo-K-1, ChaGo-K-1): 0.967 µM
- EC50 (Ci-1, CI-1): 0.193 µM
- EC50 (DAN-G): 13.4 µM
- EC50 (DB): 0.29 µM
- EC50 (DLD-1, DLD-1): > 30 µM
- EC50 (DMS-53, DMS 53): 8.76 µM
- EC50 (DMS-153, DMS 153): 0.405 µM
- EC50 (DMS-273, DMS 273): 0.691 µM
- EC50 (DU-4475, DU4475): 0.218 µM
- EC50 (Daoy): 0.542 µM
- EC50 (Detroit 562, Detroit 562): 4 µM
- EC50 (EBC-1, EBC-1): 5.63 µM
- EC50 (EOL1, EOL-1): 0.262 µM
- EC50 (FaDu): 0.55 µM
- EC50 (Fu97, FU97): 0.942 µM
- EC50 (G-401, G-401): 0.402 µM
- EC50 (G-402, G-402): 4.1 µM
- EC50 (GAMG): 2.92 µM
- EC50 (GB-1, GB-1): 3.9 µM
- EC50 (GDM-1, GDM-1): 0.162 µM
- EC50 (GI-1, GI-1): 3.27 µM
- EC50 (GP2d): > 30 µM
- EC50 (H4): 0.79 µM
- EC50 (HARA): 9.03 µM
- EC50 (HCC15, HCC-15): 5.2 µM
- EC50 (HCC44, HCC-44): 2.38 µM
- EC50 (HCC78, HCC-78): 2.29 µM
- EC50 (HCC95, HCC-95): 18.4 µM
- EC50 (HCC827, HCC827): 1.78 µM
- EC50 (HCC1143, HCC1143): 6.07 µM
- EC50 (HCC1187, HCC1187): 7.5 µM
- EC50 (HCC1588, HCC-1588): 0.421 µM
- EC50 (HCC1806, HCC1806): 5.45 µM
- EC50 (HCC1954, HCC1954): 2.18 µM
- EC50 (HCC4006, HCC4006): 1.73 µM
- EC50 (HCC-56): 0.413 µM
- EC50 (HCC-1359): 1.87 µM
- EC50 (HCC-1833): 3.41 µM
- EC50 (HCT-15, HCT-15): 1.36 µM
- EC50 (HD-MY-Z): 0.531 µM
Compound: COCc1ccccc1NCc1ccc([C@H]2[C@@H](O)CCCc3cncn32)c(-c2ccccc2Cl)c1 [CSN5i-2, (5S,6S)-5-(2′-chloro-5-(((2-(methoxymethyl)phenyl)amino)methyl)-[1,1′-biphenyl]-2-yl)-6,7,8,9-tetrahydro-5H-imidazo[1,5-a]azepin-6-ol]
- AMAX (59M): -68.225
- AMAX (A101D): -76.7398
- AMAX (A172): -55.6841
- AMAX (A549): -65.9191
- AMAX (A2780): -85.074
- AMAX (ABC-1): -77.8125
- AMAX (AM-38): -77.876
- AMAX (AU565): -62.6343
- AMAX (AsPC-1): -59.6849
- AMAX (BFTC-909): -64.2004
- AMAX (BICR 6): -79.1425
- AMAX (BICR 16): -84.074
- AMAX (Calu-6): -81.2731
- AMAX (FaDu): -81.7331
- AMAX (GP2d): -35.7458
- AMAX (HARA): -63.4816
- AMAX (HCC1143): -57.1762
- AMAX (HCC1187): -75.8993
- AMAX (HCC1954): -88.6962
- AMAX (HD-MY-Z): -86.2175
- AMAX (HEC-151): -65.4188
- AMAX (HEL): -95.954
- AMAX (HL-60): -90.6278
- AMAX (HLC-1): -73.9563
- AMAX (HLE): -90.9124
- AMAX (HLF): -62.5035
- AMAX (HSC-4): -75.9669
- AMAX (HT-29): -64.9206
- AMAX (HUP-T4): -81.3707
- AMAX (Hep3B): -76.5642
- EC50 (HCC70, HCC70): 2.35 µM
